Measured values reported in patent US20120142771A1, “BIPHENYLACETAMIDE DERIVATIVE” (Dainippon Sumitomo Pharma Co., Ltd., priority 2008, published 2012).

How the values were obtained:
Crl: CD (SD) male rats = assay: Evaluation of antidepressant effect (forced swimming, duration of immobility); format: in vivo
From the text: (§1) Meanwhile, there are no reports about animal models which provide a good clinical prediction to evaluate the improving efficacy for bipolar disorder. However, bipolar disorder comprises “manic state” and “depressive state”, and some animals are reported to be useful as a model to evaluate the improvement of each pathological condition individually. In general, an index of manic state is excessive hyperactivity induced by administering methamphetamine and chlordiazepoxide in combination, and that of depressive state is immobility induced by forced swimming.
Test 6: Evaluation of Antidepressant Effect
Test 6 is a typical test to evaluate the antidepressant activity of medicaments (Porsolt et al., Nature, 266: 730-732, 1977, Porsolt et al., Eur. J. Pharmacol., 47: 379-391, 1978). Crl: CD (SD) male rats (12 rats in each group, body weight 200-250 g) were forced to swim for 15 minutes in a water pool with 200 mm diameter. In the pool, water was filled up to a depth of 205 mm from the bottom of the pool, and thus the rats could not touch the bottom of the pool with their hind limbs. Fifteen minutes after the completion of the forced swimming, test compounds were orally administered to the rats. On the next day, the test compounds were administered to the rats at the same dose as the previous day, and the rats were put in the pool for 5 minutes at the same clock time as the previous day. […] The antidepressant effect was evaluated by calculating how long the duration of immobility was shortened against the control. To the control, 0.5% methylcellulose solution was administered.

Slc: C57BL/6J male mice = assay: Evaluation of antimanic effect (methamphetamine and chlordiazepoxide induced hyperactivity, locomotor distance); format: in vivo; conditions: for The rate of the shortened locomotor-distance (% control): methamphetamine 4 mg/kg and chlordiazepoxide 10 mg/kg i.p.
From the text: as §1
Test 7: Evaluation of Antimanic Effect
Test 7 evaluates the antimanic effect of medicaments. The evaluation system is a test system whose utility has been already confirmed with a known antimanic agent which is clinically used as a mood-stabilizing drug, not as a drug for treating schizophrenia (Arban et al., Behay. Brain Res., 158:123-132, 2005, Foreman et al., Pharmacol. Biochem. Behay., 89: 523-534, 2008). Test compounds were orally administered to Slc: C57BL/6J male mice (8 mice in each group, body weight 20-26 g). After 30 minutes of administration, methamphetamine (4 mg/kg) and chlordiazepoxide (10 mg/kg) were administered intraperitoneally. Then, the mice were allowed to move freely in an acrylic cage (W 360 mm×D 230 mm×H 310 mm) for 90 minutes. The locomotor distances of the mice were measured with Ethovision software (Ver. 3.1). Among the 90 minutes, the result of the latter 60 minutes with the exception of the first 30 minute's result for adaptation to the new environment was used as data of the locomotor distance. The antimanic effect was evaluated by calculating how long locomotor distance was shortened against the control. To the control mice, 0.5% methylcellulose solution was administered.

[1] = test system: subcutaneously pentetrazol-injected model (scPTZ); assay: Subcutaneously pentetrazol-injected model (scPTZ) test; format: in vivo, mice; conditions: pentetrazol 85 mg/kg s.c. after 1 hour
Method in brief: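 Male Slc:ddY mice (20-30 g, 3 per group) dosed orally at 50 or 100 mg/kg; pentetrazol 85 mg/kg given subcutaneously 1 h later. Controls received 0.5% tragacanth or 0.5% methylcellulose vehicle.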

[2] = test system: 6 Hz psychomotor seizure model; assay: 6 Hz psychomotor seizure model; format: in vivo, mice; conditions: mice, oral
Method in brief: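 Anticonvulsant activity was tested in the 6 Hz psychomotor seizure model in mice, a model reflecting seizures resistant to current antiepileptic drugs. 30 minutes or an hour after dosing, corneal electrical stimulation (6 Hz, 32 mA, 3 seconds) was applied to provoke forelimb myoclonus, Straub tail and immobility. Control mice received 0.5% tragacanth solution, 0.5% methylcellulose solution or olive oil.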

[3] = test system: maximum electroshock seizure (MES) model; assay: Maximum electroshock seizure (MES) model test; format: in vivo, mice
Method in brief: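 Male Slc: ddY mice (3 per group, 20-30 g) received compound orally at 50 or 100 mg/kg; controls got 0.5% tragacanth or 0.5% methylcellulose. One hour post-dose, corneal stimulation (60 Hz, 25 mA, 0.2 s) induced tonic hind-limb extensor convulsion.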

| SMILES | duration of immobility (Crl: CD (SD) male rats; same conditions) | locomotor distance (Slc: C57BL/6J male mice; same conditions) | The rate of the shortened duration of immobility (% control) (Crl: CD (SD) male rats; 10 mg/kg oral) | The rate of the shortened duration of immobility (% control) (Crl: CD (SD) male rats; 30 mg/kg oral) | The rate of the shortened locomotor-distance (% control) (Slc: C57BL/6J male mice; 30 mg/kg oral) | The rate of the shortened locomotor-distance (% control) (Slc: C57BL/6J male mice; 60 mg/kg oral) | The rate of the shortened locomotor-distance (% control) (Slc: C57BL/6J male mice; 100 mg/kg oral) | responders at 50 mg/kg ([1]; Mus musculus, po, 1 h, 50 mg/kg oral, Slc: ddY male mice, 3 per group, observed 30 minutes for clonic convulsion, read-out: scPTZ (positive number/tested number) (converted)) [%] | responders at 100 mg/kg ([1]; Mus musculus, po, 1 h, 100 mg/kg oral, Slc: ddY male mice, 3 per group, observed 30 minutes for clonic convulsion, read-out: scPTZ (positive number/tested number) (converted)) [%] | anticonvulsant action in subcutaneously pentetrazol-injected model (scPTZ) test ([1]; mice, oral 50 or 100 mg/kg) | ED50 ([2]; Mus musculus, 6 Hz psychomotor seizure model, read-out: ED50) [mg/kg] | 6 Hz (Positive number/tested number) ([2]; dose 50 mg, 30 minutes or 1 hour after administration) | responders at 50 mg/kg ([3]; Mus musculus, po, 1 h, 50 mg/kg oral, Slc: ddY male mice, 3 per group, electrical stimulation 1 hour after administration, inhibition of hind limb extension, read-out: MES (positive number/tested number) (converted)) [%] | responders at 100 mg/kg ([3]; Mus musculus, po, 1 h, 100 mg/kg oral, Slc: ddY male mice, 3 per group, electrical stimulation 1 hour after administration, inhibition of hind limb extension, read-out: MES (positive number/tested number) (converted)) [%] | anticonvulsant action in maximum electroshock seizure (MES) model test ([3]; mice, oral 50 or 100 mg/kg, 1 hour after administration) |
| --- | --- | --- | --- | --- | --- | --- | --- | --- | --- | --- | --- | --- | --- | --- | --- |
| Nc1nnc(-c2cccc(Cl)c2Cl)c(N)n1 [Lamotrigine, reference compound] | dose-dependently shortened | dose-dependently shortened |  |  |  |  |  |  |  |  |  |  |  |  |  |
| NC(=O)Cc1ccccc1-c1ccccc1Cl [Example 16, 2-(2′-chlorobiphenyl-2-yl)acetamide] |  |  | 19.9 | 21.9 | 45.7 | 69.1 | 84.9 | 66.7 | 100 | anticonvulsant action was observed | 38.1 | 8/10/50 | 100 | 100 | anticonvulsant action was observed |
